Entries after “also recorded” stand apart in the source; their conditions may differ.
Key:
[1] = tested on: C1498 acute leukemia cells; assay: Analysis of anti-leukemia activity, C1498 challenge; format: in vivo, mice
Protocol: The prophylactic vaccines consist of irradiated C1498 cells that are incubated with compounds of the invention for 24 h. Control animals are injected with irradiated C1498 cells alone, compound alone, or left untreated. The time to onset of leukemia-associated symptoms are shown. (A) Analysis of vaccines incorporating CN161. (B) Analysis of vaccines incorporating α-GalCer.
To generate cell-based vaccines, C1498 acute leukemia cells are cultured for 24 h in complete IMDM supplemented with 200 ng/ml of α-GalCer or 200 ng/ml CN161, washed three times with PBS, and γ-irradiated (150 Gy). Vaccines comprising of 7.5×10^5 cells are administered intravenously via the lateral tail vein. Mice are monitored for onset of leukemia-associated symptoms, such as weight loss, hunching or reduced grooming. All experiments are conducted with five animals per treatment group, with controls including a leukemia-only group.

[2] = tested on: cytokines IL-12p70, IL-4 and IFN-γ; assay: Analysis of cytokine release into serum; format: in vivo, C57BL/6 mice; settings: for ratio of cytokines IFN-γ/IL-4: 0.23 nmol intravenously, blood at 18 h (IFN-γ) and 3 h (IL-4), compared to α-GalCer
Protocol: Groups of C57BL/6 mice (n=3) are injected intravenously with 0.23 nmol of the indicated compounds.
Each compound of the invention is supplied as formulated product (see example 3), and diluted in water for delivery (0.23 nmol/mouse) by intravenous injection into the lateral tail vein. In humans the expected therapeutic dose lies in the 50-4800 (μg/m^2) range (Giaccone, Punt et al. 2002). Note, 0.23 nmol in a mouse is a human equivalent dose of 30 μg/m^2 for α-GalCer.
Blood is collected from the lateral tail vein at different time intervals after glycolipid administration. Serum is collected after blood has clotted, and levels of cytokines IL-12p70, IL-4 and IFN-γ are assessed by cytokine bead array technology (Biolpex, Biorad), according to the manufacturer's instructions.

[3] = in vivo; cited from earlier work
[4] = cited from earlier work
human NKT cells = assay: Proliferation of human NKT cells in PBMC culture; format: cell-based; settings: PBMC from one donor, 7 days culture with IL-2
Protocol: Peripheral blood mononuclear cells from one donor are cultured for 7 days with different doses of the indicated compounds in the presence of IL-2, and then the percentages of NKT cells in the final cultures determined by flow cytometry with fluorescent α-GalCer-loaded CD1d tetramers and anti-CD3. Data are expressed as percentage of NKT cells (α-GalCer/CD1d tetramer and anti-CD3-binding cells) of total T cells (all anti-CD3-binding cells).
Peripheral blood is drawn into heparinized tubes, diluted 1:1 in PBS, and layered over a sodium diatrizoate and polysaccharide solution (Lymphoprep; Axis-Shield, Oslo, Norway) before centrifugation at 800×g for 25 minutes at room temperature to collect the peripheral blood mononuclear cell (PBMC) fraction, which contains NKT cells. To assess proliferation of NKT cells, PBMC (2×10^5 per well) are cultured at 37° C. in Iscove's Modified Dulbecco's Medium with 5% human AB serum and the indicated concentrations of α-GalCer, or CN161, with recombinant human IL-2 50 U/mL (Chiron Corporation, Emeryville, Calif.) added after 24 hours. After 7 days of culture, the cells are analysed by flow cytometry, using fluorescent soluble CD1d tetramers that have been loaded with α-GalCer to identify the NKT cells. […]

SVYDFFVWL-loaded targets = assay: In vivo cytotoxic capacity of TRP-2 specific T cells after vaccination; settings: 0.23 nmol compound with long TRP-2 peptide (0.57 nmol) intravenously; targets injected 7 days after vaccination
Protocol: Control animals are injected with the long peptide alone, or α-GalCer alone. […] To discriminate the targets from host tissue, the injected cells are labelled with the fluorescent dye carboxyfluorescein succinimidyl ester (CFSE). A cohort of syngeneic splenocytes (without peptide) labelled with the fluorescent dye cell tracker orange are also injected to serve as controls. Killing is defined as the percentage of peptide-loaded targets killed relative to control cells. Each treatment group contained 5 animals with mean percentage of killing per group±SEM shown.

B16.OVA melanoma = assay: Analysis of anti-tumour activity, B16.OVA melanoma challenge; format: in vivo, C57BL/6 mice
Protocol: Groups of C57BL/6 mice (n=5) are injected with 1×10^5 live B16.OVA tumour cells subcutaneously on day 0. On day 6 0.23 nmol of the indicated compounds (α-GalCer or CN161) mixed with OVA protein (200 μg) are administered intraveneously. The tumour size is monitored regularly with calipers until the first animal in each group reached 200 mm^2, at which point the whole group is culled.
Control animals are injected with the long peptide alone, α-GalCer alone, or left untreated. The mean tumour sizes per group (n=5)±SEM are shown.
Groups of C57BL/6 mice (n=5) receive a subcutaneous injection into the flank of 1×10^5 B16.OVA melanoma cells, which express a cDNA encoding the chicken ovalbumin (OVA) sequence. The different groups are treated 7 days later, when tumours are fully engrafted, by intravenous injection of one of the following; vaccines as indicated in text and figure legends. Mice are monitored for tumour growth every 3-4 days, and tumour size for each group is calculated as the mean of the products of bisecting diameters (+SEM). Measurements are terminated for each group when the first animal develops a tumour exceeding […].

[5] = cell-based vaccine: irradiated C1498 cells incubated with compound (200 ng/ml) for 24 h, intravenously

SMILES	anti-leukemia activity (time to onset of leukemia-associated symptoms) [1, 5]	anti-leukemia activity (time to onset of leukemia-associated symptoms) ([1]; compound injected alone)	time of peak IFN-γ level in the serum ([2]; after injection) [h]	time of peak IL-12p70 level in the serum ([2]; after injection) [h]	time of peak production of IL-4 in the serum ([2]; after injection) [h]	efficacy in human clinical trials [3]	solubility [4]	proliferation of iNKT cells (percentage of NKT cells of total T cells) (human NKT cells)	cytotoxic response (killing of peptide-loaded targets) (SVYDFFVWL-loaded targets)	ratio of cytokines IFN-γ/IL-4 [2]	antitumour activity against B16.OVA melanoma (tumour growth) (B16.OVA melanoma; 0.23 nmol compound with long TRP2 peptide (0.57 nmol) intravenously)	antitumour activity against B16.OVA melanoma (B16.OVA melanoma; compound with long OVA peptide KISQAVHAAHAEINEAGRESIINFEKLTEWT intravenously)	vaccine adjuvant activity, progression of B16.OVA melanoma (B16.OVA melanoma; therapeutic challenge, 0.23 nmol compound mixed with OVA protein (200 μg) intravenously)
CCCCCCCCCCCCCCCCCCCCCCCCCC(=O)N[C@@H](CO[C@H]1O[C@H](CO)[C@H](O)[C@H](O)[C@H]1O)[C@H](O)[C@H](O)CCCCCCCCCCCCCC [α-GalCer, α-Galactosylceramide]	significant protection	not active and not	> 12	6	2 to 3	lack of efficacy	poor solubility	–	–	–	–	–	–
CCCCCCCCCCCCCCCCCCCCCCCCCC(=O)N[C@@H](C[C@]1(O)O[C@H](CSSC[C@H]2O[C@@](O)(C[C@H](NC(=O)CCCCCCCCCCCCCCCCCCCCCCCCC)[C@H](O)[C@H](O)CCCCCCCCCCCCCC)[C@H](O)[C@@H](O)[C@H]2O)[C@H](O)[C@H](O)[C@H]1O)[C@H](O)[C@H](O)CCCCCCCCCCCCCC [CN161, 6,6′-Disulfanediylbis[6-deoxy-1-((2S,3S,4R)-3,4-dihydroxy-2-(hexacosanoylamino)octadecyl)-α-D-galactopyranose]]	anti-leukemia activity; also recorded: significant protection	anti-leukemia activity; also recorded: can provide protection	–	–	–	–	–	able to induce the proliferation of iNKT cells	potent antigen-specific cytotoxicity; also recorded: greater cytotoxic response	higher ratio of IFN-γ/IL-4	delayed tumour growth; also recorded: anti-tumour activity	equivalent anti-tumour activity	potent vaccine adjuvant activity
CCCCCCCCCCCCCCCCCCCCCCCCCC(=O)N[C@@H](CO[C@H]1O[C@@H]2CO[C@@H]2[C@H](O)[C@H]1O)[C@H](O)[C@H](O)CCCCCCCCCCCCCC [CN154, (2S,3S,4R)-1-(4,6-Anhydro-α-D-galactopyranosyloxy)-2-hexacosanoylamino-3,4-octadecandiol]	–	–	–	–	–	–	–	–	–	higher ratio of IFN-γ/IL-4	–	–	–

Reference: US9717790B2, “Sphingoglycolipid analogues” (Victoria Link Limited, priority 2013, dated 2017)
